Measurements published in ChEMBL document CHEMBL6134843, “HDAC11 Inhibition as a Potential Therapeutic Strategy for AML: Target Identification, Lead Discovery, Antitumor Potency, and Mechanism Investigation” (J Med Chem, 2025).
The source made the active and inactive calls. No cut-off for these calls is given here.

Tests used:
OCI-AML2 [1] = test: Induction of ferroptosis in human OCI-AML2 cells assessed as increase in ferrous ion accumulation at 5 uM incubated for 48 hrs by RhoNox-1 staining based flow cytometry analysis; format: functional, cell-based
MLL-AF9 = test: Antitumor activity against mouse MLL-AF9 cells allografted in female C57BL/6 mouse model assessed as reduction in hepatomegaly at 50 mg/kg, ip administered once daily for 23 days in presence of cytarabine; format: functional, organism-based; details: time 23.0 day
OCI-AML2 [2] = test: Induction of ferroptosis in human OCI-AML2 cells assessed as increase in cellular ROS level incubated for 48 hrs by DCFH-DA staining based flow cytometry analysis; format: functional, cell-based; details: dose 2.5-10 µM
OCI-AML2 [3] = test: Induction of ferroptosis in human OCI-AML2 cells assessed as increase in lipid peroxidation level incubated for 48 hrs by C11-BODIPY 581/591 staining based flow cytometry analysis; format: functional, cell-based; details: dose 2.5-10 µM
[4] = tested on: Acute myeloid leukemic cell; test: Induction of ferroptosis in human Acute myeloid leukemic cells assessed as upregulation of TFRC mRNA level by RT-qPCR analysis; format: functional, cell-based
U-937 [5] = test: Antitumor activity against human U-937 cells assessed as cell growth inhibition incubated for 2 days by CCK-8 assay; details: U-937, 48 h
THP-1 = test: Antiproliferative activity against human THP-1 cells assessed as cell growth inhibition incubated for 2 days by CCK-8 assay; details: THP-1, 48 h
[6] = Antitumor activity against mouse MLL-AF9 cells allografted in female C57BL/6 mouse model assessed as GFP positive leukemic cells in peripheral blood at 50 mg/kg, ip administered once daily for 26 days in presence of cytarabine by FITC staining based analysis (reference value: 30.6 %); format: functional; details: time 26 day
U-937 [7] = test: Induction of cell cycle arrest in human U-937 cells assessed as accumulation of cells at G1 phase at 5 uM incubated for 48 hrs by EdU/DAPI staining based flow cytometry analysis; format: functional
U-937 [8] = test: Antiproliferative activity against human U-937 cells assessed as suppression of cell growth at 5 uM incubated for 48 hrs in presence of K67 by trypan blue staining based analysis; format: functional
OCI-AML2 [9] = test: Induction of ferroptosis in human OCI-AML2 cells assessed as increase in ferrous ion accumulation at 100 uM incubated for 48 hrs by RhoNox-1 staining based flow cytometry analysis; format: functional, cell-based
U-937 [10] = test: Induction of ferroptosis in human U-937 cells assessed as increase in lipid peroxidation level incubated for 48 hrs by C11-BODIPY 581/591 staining based flow cytometry analysis; format: functional, cell-based; details: dose 2.5-10 µM
MV4-11 = test: Antiproliferative activity against human MV4-11 cells assessed as cell growth inhibition incubated for 2 days by CCK-8 assay; details: MV4-11, 48 h
[11] = Antitumor activity against mouse MLL-AF9 cells allografted in female C57BL/6 mouse model assessed as GFP positive leukemic cells in peripheral blood at 50 mg/kg, ip administered once daily for 32 days in presence of cytarabine by FITC staining based analysis (reference value: 72.5 %); format: functional; details: time 32 day
U-937 [12] = test: Upregulation of p62 mRNA level in human U-937 cells by qRT-PCR analysis; format: functional, cell-based
U-937 [13] = test: Upregulation of Nrf2 transcription level in human U-937 cells by RNA-seq analysis; format: functional, cell-based
[14] = tested on: Acute myeloid leukemic cell; test: Induction of ferroptosis in human Acute myeloid leukemic cells assessed as upregulation of TFRC protein level at 2.5 to 10 uM by Western blot analysis; format: functional, cell-based; details: dose 2.5-10 µM

O=C(NO)c1cccc2[nH]c(C#Cc3cccc(C(F)(F)F)c3)cc12
Activity (OCI-AML2 [1]): Active
Activity (MLL-AF9): Active
Activity (OCI-AML2 [2]): Dose-dependent-effect
Activity (OCI-AML2 [3]): Dose-dependent-effect
Activity [4]: Active
IC50 (U-937 [5]): 9.66 µM
IC50 (THP-1): ≤ 10 µM
Activity [6]: 1.74%
Activity (U-937 [7]): Dose-dependent-effect
Activity (U-937 [8]): inactive
Activity (OCI-AML2 [9]): Active
Activity (U-937 [10]): Dose-dependent-effect
IC50 (MV4-11): ≤ 10 µM
Activity [11]: 4.3%
Activity (U-937 [12]): Active
Activity (U-937 [13]): inactive
Activity [14]: Active
